Laboratory results as given in PMC12163822, “Synthesis and Pharmacological Characterization of a Novel Cannabinoid Receptor 1 Antagonist” (ACS Omega, 2025).
“Also recorded” adds a separate entry of the source. Read-outs that look alike come from different tables or passages of the source.

Legend:
CB1 receptor [1] = target: T1, CB1 receptor (Rattus norvegicus, UniProt P20272); assay: [3H]CP55,940 receptor autoradiography in rat brain slices; type: binding, Sprague-Dawley rat; design: fresh frozen sections from brain samples from wild-type; from tissue; host or cells: Sprague-Dawley rat brain sections; details: for [3H]CP55,940 binding: rat, 3 nM [3H]CP55,940 in the presence of compound 10 µM
T1 sequence (P20272 whole entry): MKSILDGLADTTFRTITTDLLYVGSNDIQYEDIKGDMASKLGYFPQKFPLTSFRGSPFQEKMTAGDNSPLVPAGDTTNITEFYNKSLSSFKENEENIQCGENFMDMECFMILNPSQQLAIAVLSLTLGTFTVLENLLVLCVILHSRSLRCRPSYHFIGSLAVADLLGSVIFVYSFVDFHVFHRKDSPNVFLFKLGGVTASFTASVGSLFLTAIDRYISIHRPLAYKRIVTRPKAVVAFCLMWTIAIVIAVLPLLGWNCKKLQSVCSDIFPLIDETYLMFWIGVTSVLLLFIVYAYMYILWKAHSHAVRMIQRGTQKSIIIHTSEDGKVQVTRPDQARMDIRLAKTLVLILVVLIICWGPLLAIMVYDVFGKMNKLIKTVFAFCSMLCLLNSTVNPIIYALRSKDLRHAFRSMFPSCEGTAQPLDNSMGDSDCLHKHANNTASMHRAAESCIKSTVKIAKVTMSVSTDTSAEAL
Protocol: (§1) All brain sections were air-dried for 30 min and later immersed in Coplin jars for preincubation in a buffer containing 50 mM Tris–HCl and 1% of BSA (pH 7.4) for 30 min at room temperature. The objective of this preincubation was to remove endogenous ligands. […] Following incubation, tissue slices were washed with an ice-cold preincubation buffer, dipped in distilled water, and dried overnight. To generate autoradiograms, dry sections were placed in hermetically closed cassettes and exposed to β-radiation-sensitive films for 21 days at 4 °C. To calibrate the optical densities to fmol/mg tissue equivalent, [^3H]-microscales were exposed to the films. To quantify the calibrated films after scanning, Fiji software (Bethesda, […], USA) was used.

CB1 receptor [2] = target: T2, CB1 receptor (Mus musculus, UniProt P47746); assay: [3H]CP55,940 receptor autoradiography in mouse brain slices; type: binding, Swiss mice; details: for [3H]CP55,940 binding: mouse, 3 nM [3H]CP55,940 in the presence of compound 10 µM
T2 construct: fresh frozen sections from brain samples from wild-type; from tissue; host or cells: Swiss mouse brain sections
T2 sequence (P47746 whole entry): as the sequence (P20272 whole entry) above, with E95D counted along it
Protocol: as §1

cannabinoid receptors = assay: [3H]CP55,940 competition binding in rat brain cortex membrane homogenates; design: species or system Sprague-Dawley rat; details: for IC50: vs [3H]CP55,940, rat brain cortex membranes
Protocol: (§2) Sprague–Dawley rats (n = 5) were anesthetized and sacrificed by decapitation. Spleens and brains were then quickly removed by dissection at 4 °C, and in the case of the brain tissue, the cortex was dissected for the preparation of the membrane homogenates. For this procedure, spleen and cortex samples were homogenized using a Teflon-glass grinder (15 up-and-down strokes at 800 rpm) in 30 volumes of homogenization buffer (1 mM EGTA, 3 mM MgCl2, 50 mM Tris–HCl; pH 7.4) supplemented with […], at 4 °C. The obtained homogenates were centrifuged for 5 min at 1500 rpm. Pellets were removed, and supernatants were centrifuged again for 15 min at 14,000 rpm. For washing, the obtained pellets were resuspended in a buffer and centrifuged again, and the supernatant was removed. The resulting aliquots were stored at −80 °C until use.
(§3) To stop the reaction, an ice-cold wash buffer (50 mM Tris–HCl and 0.5% BSA, pH 7.4) was added. Then, the membranes were retained by vacuum filtration to a Whatman GF/C glass microfiber filter (Sigma-Aldrich, St. Louis, MO, USA) and the free radioligand was discarded. Filters with the bound radioligand were transferred to vials containing 5 mL of Ultima Gold cocktail (Revvity, Boston, MA, USA) and measured with a Packard Tri-Carb 2200CA liquid scintillation counter (Revvity, Boston, MA, USA).
Data from radioligand affinity assays were analyzed by using nonlinear regression. A comparison of fits was performed for every curve and the preferred model (one site vs two sites) was chosen in each case. Curves were fitted to the pooled data from multiple experiments. For the evaluation of data from autoradiographic assays, the Kruskal–Wallis test followed by Dunn’s post hoc tests for multiple comparisons was performed. For statistical significance, the threshold was set at p = 0.05. The number of replicates or animal sample number used in each case is stated in the figure legends. GraphPad Prism 9 (GraphPad Software) was employed for data analysis and presentation.

human CB1 receptor = target: T3, human CB1 receptor (Homo sapiens, UniProt P21554); assay: [35S]GTPγS functional binding assay in CHO cells overexpressing human CB1; type: biochemical; details: CB1 overexpressing CHO membranes, result in words
T3 construct: purchased Sigma-Aldrich; host or cells: CHO cells
T3 sequence (P21554 whole entry): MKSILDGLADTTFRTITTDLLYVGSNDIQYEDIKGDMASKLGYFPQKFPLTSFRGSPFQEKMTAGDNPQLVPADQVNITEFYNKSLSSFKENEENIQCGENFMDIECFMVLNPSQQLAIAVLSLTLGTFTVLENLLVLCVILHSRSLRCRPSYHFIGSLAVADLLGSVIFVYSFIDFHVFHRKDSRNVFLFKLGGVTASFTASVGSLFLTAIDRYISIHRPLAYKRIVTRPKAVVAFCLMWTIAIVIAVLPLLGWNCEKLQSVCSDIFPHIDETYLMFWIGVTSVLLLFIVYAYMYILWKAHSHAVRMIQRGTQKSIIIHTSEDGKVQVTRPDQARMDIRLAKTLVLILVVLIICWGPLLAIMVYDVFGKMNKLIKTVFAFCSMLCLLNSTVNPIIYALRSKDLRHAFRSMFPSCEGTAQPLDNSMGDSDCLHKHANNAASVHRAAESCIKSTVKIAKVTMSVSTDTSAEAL
Protocol: (§4) The compound with the best affinity was also tested using functional [^35S]-GTPγS binding assays to characterize its activity as an agonist or antagonist/inverse agonist. A protein concentration of 0.1 mg/mL of rat cortex homogenates and a protein concentration of 0.02 mg/mL of commercial CB1 overexpressing CHO cells were used for these assays, suspended in a reaction buffer (Tris–HCl 50 mM, EGTA 1 mM, MgCl2 3 mM, NaCl 100 mM, 0.5% BSA; pH 7.4). The target compound was used in concentrations ranging from 10^–11 to 10^–4 M and incubated for 2 h at 37 °C with agitation in the presence of 0.5 nM [^35S]-GTPγS and 50 μM GDP. Basal coupling of [^35S]-GTPγS to Gi/o proteins was determined by incubating the membrane aliquots with the radioligand in the absence of the target compound. To define nonspecific binding, 10 μM of unlabeled GTPγS was added to the incubation.

CB1 receptor [3] = target: T1, CB1 receptor; assay: [35S]GTPγS functional binding assay in rat cortex membrane homogenates; type: biochemical; design: functional assays in membrane homogenates from the rat cortical tissue; from tissue; host or cells: Sprague-Dawley rat brain cortex
Protocol: as §4

CB2 receptor = target: T4, CB2 receptor (Rattus norvegicus, UniProt Q9QZN9); assay: [3H]CP55,940 inhibition curves in rat spleen membrane homogenates (CB2-enriched); type: binding, Sprague-Dawley rat
T4 construct: from tissue; host or cells: Sprague-Dawley rat spleen
T4 sequence (Q9QZN9 1-360): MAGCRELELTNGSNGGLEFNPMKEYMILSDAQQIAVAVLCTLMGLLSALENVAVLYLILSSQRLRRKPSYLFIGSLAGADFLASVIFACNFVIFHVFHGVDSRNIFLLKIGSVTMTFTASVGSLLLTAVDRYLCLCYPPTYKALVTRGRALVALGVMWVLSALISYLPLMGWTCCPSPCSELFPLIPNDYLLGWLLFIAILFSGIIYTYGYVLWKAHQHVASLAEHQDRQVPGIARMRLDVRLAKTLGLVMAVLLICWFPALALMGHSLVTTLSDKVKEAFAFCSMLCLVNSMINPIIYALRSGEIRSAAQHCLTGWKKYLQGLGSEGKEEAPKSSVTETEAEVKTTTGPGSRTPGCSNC
Protocol: as §2
as §3, with “USA). […]” for “USA).”

[4] = nucleus basalis magnocellularis

## CCOC(=O)/C=C1\C(=O)Nc2ccc(C)cc2-c2c1c1cc(OC)ccc1n2C(=O)OCC [UVI3502]
CB1 receptor [1]; rat brain slices, 10 µM, result in words
  inhibition of [3H]CP55,940 binding in brain areas: partially inhibit
CB1 receptor [1]; amygdala
  [3H]CP55,940 binding: 136 ± 52 fmol/mg t.e.
CB1 receptor [1]; cerebellum (gray matter)
  [3H]CP55,940 binding: 421 ± 126 fmol/mg t.e.
CB1 receptor [1]; cortex
  [3H]CP55,940 binding: 122 ± 25 fmol/mg t.e.
CB1 receptor [1]; globus pallidus
  [3H]CP55,940 binding: 572 ± 40 fmol/mg t.e.
CB1 receptor [1]; hippocampus dorsal
  [3H]CP55,940 binding: 184 ± 26 fmol/mg t.e.
CB1 receptor [1]; [4]
  [3H]CP55,940 binding: 147 ± 18 fmol/mg t.e.
CB1 receptor [1]; striatum
  [3H]CP55,940 binding: 291 ± 18 fmol/mg t.e.
CB1 receptor [1]; substantia nigra
  [3H]CP55,940 binding: 1364 ± 581 fmol/mg t.e.
CB1 receptor [2]; mouse brain slices, 10 µM, result in words
  inhibition of [3H]CP55,940 binding in brain areas: partially inhibit
CB1 receptor [2]; amygdala
  [3H]CP55,940 binding: 154 ± 8 fmol/mg t.e.
CB1 receptor [2]; cerebellum (gray matter)
  [3H]CP55,940 binding: 409 ± 207 fmol/mg t.e.
CB1 receptor [2]; cortex
  [3H]CP55,940 binding: 118 ± 18 fmol/mg t.e.
CB1 receptor [2]; globus pallidus
  [3H]CP55,940 binding: 698 ± 16 fmol/mg t.e.
CB1 receptor [2]; hippocampus dorsal
  [3H]CP55,940 binding: 181 ± 9 fmol/mg t.e.
CB1 receptor [2]; [4]
  [3H]CP55,940 binding: 202 ± 19 fmol/mg t.e.
CB1 receptor [2]; striatum
  [3H]CP55,940 binding: 159 ± 11 fmol/mg t.e.
CB1 receptor [2]; substantia nigra
  [3H]CP55,940 binding: 1075 ± 22 fmol/mg t.e.
Cannabinoid receptors; high-affinity site of two-site fit, read-out: IC50Hi
  IC50: 0.026 nM
Cannabinoid receptors; low-affinity site of two-site fit, read-out: IC50Lo
  IC50: 772 ± 49.4 nM
Cannabinoid receptors; rat cortex membranes
  inhibition of [3H]CP55,940 binding corresponding to the high-affinity binding site: approximately 18%
  inhibition of [3H]CP55,940 binding corresponding to the low-affinity binding site: ~40%
  total inhibition of [3H]CP55,940 binding: about 58%
Cannabinoid receptors; rat cortex membranes, result in words
  affinity for cannabinoid receptors (inhibition of [3H]CP55,940 binding): showed affinity for cannabinoid receptors
Human CB1 receptor
  stimulation of [35S]GTPγS binding (coupling of CB1 to Gi/o proteins): does not; also recorded: did not stimulate the coupling of CB1 receptors to Gi/o proteins
CB1 receptor [3]; rat cortex membrane homogenates, result in words
  stimulation of [35S]GTPγS binding (coupling of CB1 to Gi/o proteins): does not; also recorded: did not stimulate the coupling of CB1 receptors to Gi/o proteins
CB1 receptor [3]; slight decrease of baseline [35S]GTPγS binding, rat brain cortex membrane homogenates
  EC50: 4.06 ± 3.27 nM
CB2 receptor
  IC50: 10230 ± 17.8 nM
CB2 receptor; rat spleen membrane homogenates
  maximum inhibition of [3H]CP55,940 binding: ~61%
